This note sets out measurements from patent publication US20250204525A1, “ANTIMICROBIAL COMPOSITIONS” (Curie Co. Inc., priority 2023, published 2025).

SMILES strings stand for the structures.

The test deals with bacterial pool of E. coli, S. aureus, and P. aeruginosa. The test is described as follows: Antibacterial challenge testing of foaming hand soap (Example 2A). Format: cell-based. The protocol:
For antibacterial challenge testing, one vial each of E. coli, S. aureus, and P. aeruginosa was rehydrated in 1 mL peptone buffer. The concentrations of the cell suspensions were determined based on the Certificates of Analysis accompanying each bacteria vial, and the suspensions were combined and diluted in BPDB to make a 3×10^8 CFU/mL bacterial pool composed of 1×10^8 CFU/mL of each of E. coli, S. aureus, and P. aeruginosa at a final volume of 1 mL. For antifungal challenge testing, one vial of C. albicans was rehydrated in 1 mL peptone buffer. The concentration of the cell suspension was determined based on the Certificate of Analysis accompanying the vial of yeast. The resuspended cells were diluted in BPDB to 3×10^7 CFU/mL at a final volume of 1 mL.
The enumeration of the microbial population in antibacterial and antifungal challenge testing was performed in the following manner. At day 0, a 3-mL sample was collected from each of the prepared formulations and inoculated with 0.03 mL of the bacterial pool to obtain a final inoculum of 3×10^6 CFU/mL. The inoculated samples were maintained under the same conditions from day 0 to day 7. At each analysis timepoint, the inoculated samples were subjected to 10-fold serial dilutions in BPDB to obtain diluted samples such that 25-250 colonies were estimated to be yielded from 0.1 mL of the diluted sample plated on a tryptic soy agar petri dish containing Polysorbate 80 and Lecithin. The petri dishes were incubated at 31.5+/−1° C. for 24 to 48 hours. The petri dishes were then removed from the incubator and the colonies were counted and multiplied by their corresponding dilution factors to determine the bacterial concentrations (in CFU/mL) of the samples. At day 2 and day 7 post-inoculation, the serial dilutions, plating, and colony counting were repeated to monitor the changes in bacterial population.

[1] abbreviates: foaming hand soap pH 6.5, sodium benzoate 0.5% alone.
The mark [2] stands for this setting: foaming hand soap pH 6.5, sodium benzoate 0.5% alone, listed as sodium benzoate.
Setting [3] is: foaming hand soap pH 7.0, sodium benzoate 1% alone.
The mark [4] stands for this setting: foaming hand soap pH 7.0, sodium benzoate 1% alone, listed as sodium benzoate.
The mark [5] stands for this setting: foaming hand soap pH 7.5, sodium benzoate 1% alone.
Setting [6] is: foaming hand soap pH 8.0, sodium benzoate 1% alone.

As to `O=C([O-])c1ccccc1.[Na+]` [Sodium Benzoate, Sodium benzoate], the “Day 2 log reduction in CFU/mL compared to Day 0” value reads like this: under setting [1], 0.84 log CFU/mL; under setting [2], “Modest reductions”; under setting [3], 0.88 log CFU/mL; under setting [4], “Modest reductions”; under setting [5], −0.62 log CFU/mL; under setting [6], −0.90 log CFU/mL. Further, the “Day 7 log reduction in CFU/mL compared to Day 0” value runs as follows: under setting [1], −1.25 log CFU/mL; under setting [2], “no reduction”; under setting [3], −1.39 log CFU/mL; under setting [4], “no reduction”; under setting [5], −1.23 log CFU/mL; (foaming hand soap pH 7.5, sodium benzoate 1% alone, listed as sodium benzoate) “no reduction”. The “Day 7 log reduction in CFU/mL compared to Day 0” value by setting is: under setting [6], −0.91 log CFU/mL; (foaming hand soap pH 8.0, sodium benzoate 1% alone, listed as sodium benzoate) “no reduction”.
